In patent US20100022652A1, “Antimicrobial and Anticoagulant Compositions and Methods” (Tyco Healthcare Group LP, priority 2008, published 2010):

What was measured:
[1] = system: Pseudomonas aeruginosa (ATCC 27853); assay: Checkerboard titration / micro-dilution antimicrobial synergy evaluation (MIC, FIC); type: cell-based
Protocol: The combinations having an FIC index of ≦0.5 are considered synergistic while a FIC index of >0.5 but ≦1 are considered partially synergistic.
First, potential antimicrobial synergy in a composition having a combination of EDTA and NAC components was investigated with respect to the Pseudomonas aeruginosa (ATCC 27853) microorganism.
According to this method the stock solutions are prepared having a concentration equivalent or higher than twice the MIC of the components among which synergy is to be tested.
As the solutions get turbid, a higher optical density values generated. Generally speaking, increased turbidity, and thus higher optical density readings, are indicative of the presence of micro organisms in the solution. During analysis of the samples, optical density measurements above a predetermined cutoff value is indicative that there are microorganisms present in the solutions or samples, and are thus characterized by positive growth (+), while optical density readings which fall below the cutoff value can be characterized by negative growth (−). A number of the OD measurements were made (OD1, OD2, OD3), and the mean value calculated.

[2] = system: clot formation in normal anticoagulated plasma; assay: Prothrombin time (PT) assay, PT converted to INR; type: biochemical, human; settings: ISI 1.65
Protocol: The Prothrombin Time (PT) Assay primarily measures the time required for the clot formation in a test sample. Per the assay, the test samples first mixed with normal anticoagulated plasma in a ratio of 1:9 and incubated for 2 minutes at Room temperature. Then tissue thromboplastin with calcium ions is added to the test samples. The samples are then incubated for 2 minutes at 37° C. Tissue thromboplastin and calcium ions is added to normal anticoagulated plasma mixed with formulation, to initiate the clotting mechanism leading to formation of a fibrin clot. The coagulation analyzer is utilized to record the PT required for clot formation. The PT so obtained is then converted to International Normalized Ratio (INR) by utilizing the following formula:
INR=(PTTest Sample/PTControl Level 1)^ISI;
wherein ISI (International Sensitivity Index)—indicates the sensitivity of individual thromboplastin. The value of ISI utilized in the anticoagulant investigations reported herein is 1.65.
If the deficiency exists within coagulation pathway (for example test blood contains heparin or other anticoagulant) the time required for clot formation will be prolonged. Any INR values ≧ that of abnormal plasma level 2 (e.g., TriniCHECK™ Level 2; Trinity Biotech) are considered indicative of deficiency within the coagulation pathway, and thus indicative of highly anticoagulative properties. Any INR values higher than 5.5 are considered indicative of highly anticoagulant behavior. Therefore, the strength of an anticoagulant can be characterized by the INR value, i.e., the larger the INR value the stronger the anticoagulant properties.

| MIC [1] | Structure (SMILES) | INR ([2]; 4 wt % DEDTA alone) | INR ([2]; at 8 wt %) |
| --- | --- | --- | --- |
| 0.25 wt % | O=C([O-])CN(CCN(CC(=O)[O-])CC(=O)O)CC(=O)O.[Na+].[Na+] [DEDTA, disodium EDTA] | 16.7 | > 233 |
| 0.25 wt % | CC(=O)N[C@@H](CS)C(=O)O [NAC, N-Acetyl Cysteine] |  | > 26 |
